Test results reported in patent publication US7247736B2, “Method of identifying inhibitors of DHODH” (4SC AG, priority 2002, dated 2007).
Entries after “also recorded” stand apart in the source; their conditions may differ.

target: T1, human DHODH(Met30-Arg396) (Homo sapiens, UniProt Q02127); test: X-ray co-crystal structure, inhibitor binding mode; conditions: carboxylic acid group, subsite 2 vs subsite 3
T1 construct: N-terminally truncated human DHODH(Met30-Arg396); made in house; host or cells: E. coli BL21(DE3)Gold, pET-19b
Protocol: The hanging drops were incubated against 0.5 mL reservoir of 0.1 M acetate pH 4.8, 2.4-2.6 M ammonium sulfate and 30% glycerol. The crystallization conditions were screened by variation of pH versus ammonium sulfate concentration using a small grid screen (see FIG. 2):
The racemic mixtures were used for crystallization experiments.
Crystals were harvested with pre-mounted loops of size 0.5 mm (Hampton Research) and were flash frozen directly in the cryo stream of the measurement device.
Data were collected at the beamline BW6 at the DESY Hamburg on a MAR-CCD camera. […] The crystals were maintained at a temperature of 100 K during data collection.
[…] At this stage 5% or 10% (the “test set”) of unique reflections were flagged for cross validation to calculate the free R-factor (Rfree) during the refinement process.
(§1) The free accessible pdb entry 1D3G.pdb was used as a search model. The ligands brequinar and DDQ as well as all of the water molecules were removed prior to the MR search. The search model included the polypeptide chain of hDHODH(Met30-Arg396), one molecule of orotate, one molecule of the cofactor flavinmononucleotide (FMN) and one acetate molecule which was present under the crystallization conditions.
(§2) In a first round of refinement the MR model was subjected to rigid body refinement and a slow cooling simulated annealing protocol using a maximum likelihood target to remove model bias (Accelrys Inc. CNX program suite, CNX2002). Additionally, an individual b-factor refinement was carried out using standard CNX protocols.
After energy minimization the compound was built into the electron density manually. […] After an additional round of model building and water picking using CNX another complete round of refinement was performed.
as §1
as §2, with “CNX-protocols.” for “CNX protocols.”
Both compounds were energy minimized and built into the electron density manually. […] After an additional round of model building and water picking using CNX, another complete round of refinement was performed.

T1 sequence (Q02127 29-395): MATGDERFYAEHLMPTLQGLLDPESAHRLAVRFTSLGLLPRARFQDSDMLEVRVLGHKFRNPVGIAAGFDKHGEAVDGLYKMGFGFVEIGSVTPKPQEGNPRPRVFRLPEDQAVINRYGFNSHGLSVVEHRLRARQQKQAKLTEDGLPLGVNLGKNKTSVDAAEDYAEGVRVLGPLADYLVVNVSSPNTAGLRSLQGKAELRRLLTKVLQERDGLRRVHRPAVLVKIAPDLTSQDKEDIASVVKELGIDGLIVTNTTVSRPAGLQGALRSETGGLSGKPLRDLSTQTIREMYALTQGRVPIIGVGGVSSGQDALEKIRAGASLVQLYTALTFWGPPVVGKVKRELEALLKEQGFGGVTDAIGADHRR

Structure (SMILES) | binding mode in crystal structure
COc1cccc(-c2ccc(NC(=O)C3=C(C(=O)O)CCC3O)c(F)c2)c1 (stereo not drawn) [Compound 7] | non-brequinar-like
COc1cccc(-c2ccc(NC(=O)C3=C(C(=O)O)C(O)CC3)c(F)c2)c1 (stereo not drawn) [Compound 8] | non-brequinar-like
O=C(O)C1=C(C(=O)Nc2c(F)cc(-c3cccc(OC(F)(F)F)c3)cc2F)CCC1 [Compound 2] | both a brequinar-like and a non-brequinar-like binding mode; also recorded: both the brequinar-like and non-brequinar-like binding mode
O=C(O)C1=C(C(=O)Nc2ccc(-c3cccc(OC(F)(F)F)c3)cc2F)CCC1 [Compound 4] | non-brequinar-like
O=C(Nc1c(F)cc(-c2cccc(OC(F)(F)F)c2)cc1F)c1ccsc1C(=O)O [Compound 9] | pure brequinar-like binding mode
O=C(O)C1=C(C(=O)Nc2c(F)c(F)c(-c3cccc(OC(F)(F)F)c3)c(F)c2F)CCC1 [Compound 3] | both the brequinar-like and non-brequinar-like binding mode
COc1cccc(-c2ccc(NC(=O)c3ccsc3C(=O)O)c(F)c2)c1 [Compound 10] | both a brequinar-like and a non-brequinar-like binding mode; also recorded: both alternatives
O=C(Nc1ccc(-c2cccc(OC(F)(F)F)c2)cc1F)C1=CCCC1C(=O)O (stereo not drawn) [Compound 5] | non-brequinar-like
COc1cccc(-c2ccc(NC(=O)C3=C(C(=O)O)CCC3)c(F)c2)c1 [Compound 1] | non-brequinar-like
COc1cccc(-c2ccc(NC(=O)C3CCCC3C(=O)O)c(F)c2)c1 (stereo not drawn) [Compound 6] | both a brequinar-like and a non-brequinar-like binding mode

same assay, conditions: racemic mixture used for crystallization

Structure (SMILES) | enantiomer bound in refined structure
O=C(Nc1ccc(-c2cccc(OC(F)(F)F)c2)cc1F)C1=CCCC1C(=O)O (stereo not drawn) [Compound 5] | R-form
COc1cccc(-c2ccc(NC(=O)C3CCCC3C(=O)O)c(F)c2)c1 (stereo not drawn) [Compound 6] | R-form
